Results published in ChEMBL document CHEMBL3507680, “University of Dundee, Gates Library screen for HepG2 cell viability”.

experiment: Human HepG2 cell viability assay in 384 well format; assay type: toxicity, cell-based; parameters: dose 125 nL, time 70.5 hour; cytotoxicity at 70.5 h: concentration not given beside the values; conditions: HepG2 cells, read-out: Inhibition

First: CC1CN(C)CCN1C(=O)c1cccn1Cc1cccnc1 (centres undefined)
Second: Cc1cncc(C2CCN(C(=O)c3ccc(-n4cccn4)nc3)CC2)n1
The cytotoxicity at 70.5 h of the first is lower: -7.82% for the first, -2.8% for the second.

Compared with `Cc1ccc(-n2nnc(C(=O)NS(C)(=O)=O)c2C2CC2)cc1`, `Cc1ccc(S(=O)(=O)Cc2noc([C@@H]3C[C@@H](O)CN3C)n2)cc1` is higher in cytotoxicity at 70.5 h: -9% for the first, -2.56% for the second.

First: Cc1nnc(N2CCOC(CN(C)C)C2)c(C#N)c1C (centres undefined)
Second: Cc1nn(C)c(C)c1CC(=O)N1CCC(N(C)c2cccnn2)CC1
The cytotoxicity at 70.5 h of the first is lower: -6.93% for the first, 20.4% for the second.

Going from `Cc1oncc1C(=O)N1CCC(O)(CN2CCOCC2)C(C)(C)C1` (centres undefined) to `COC[C@]1(O)CCN(Cc2c[nH]c(CC3CCCC3)n2)CC1(C)C`, the cytotoxicity at 70.5 h rises from -2.15% to 30.4%.

First: Cc1cc(NC(=O)CNC(C)(C)c2ccccc2)on1
Second: CSC(C)(C)CNC(=O)Nc1cccc(-c2nccn2C)c1
The cytotoxicity at 70.5 h of the first is higher: 17.8% for the first, -3.46% for the second.

Going from `CCC(CNC(=O)Cc1cc(C)on1)Oc1cccc(F)c1` (centres undefined) to `COCCCNC(=O)CN(C)C(=O)c1cc2cc(C)ccc2nc1C`, the cytotoxicity at 70.5 h rises from 0.445% to 3.78%.

Going from `CN(C)c1cc(C(=O)N2CCCC(n3cccn3)C2)ccn1` (centres undefined) to `Cc1nccn1C1CCCN(C(=O)c2cnc[nH]2)C1` (centres undefined), the cytotoxicity at 70.5 h rises from -11.4% to -0.305%.

First: NCCc1nc(N(Cc2nccs2)C2CC2)c2ccccc2n1
Second: O=C(NCCc1nccs1)C1CCCN(Cc2ccco2)C1 (centres undefined)
The cytotoxicity at 70.5 h of the first is higher: 37.2% for the first, -2.53% for the second.

Compared with `CC(C)C1CN(C(=O)c2ccc3nccnc3c2)CCS1` (centres undefined), `CC1CN(C(=O)c2nccnc2N)c2ccc(F)cc2O1` (centres undefined) is higher in cytotoxicity at 70.5 h: -7.38% for the first, 1.2% for the second.

First: CCCN(C)CC1CCN(c2ncc(Br)cn2)C1 (centres undefined)
Second: CNCc1cn(C2CCN(CCC(C)c3ccccc3)CC2)nn1 (centres undefined)
The cytotoxicity at 70.5 h of the first is lower: 2.13% for the first, 21.7% for the second.

Compared with `CCN(CC1CCCO1)C(=O)Nc1cc(OC)c(OC)cc1C` (centres undefined), `COc1ccc(-c2nc(CC(=O)N(C)CCC#N)cs2)cc1OC` is higher in cytotoxicity at 70.5 h: -14.3% for the first, 5.07% for the second.

Compared with `Cc1cccc(Nc2nccnc2C2CCCN2CC(N)=O)n1` (centres undefined), `Cc1cc(C)n(CC2CCCN2CC(=O)N(C)Cc2ccco2)n1` (centres undefined) is lower in cytotoxicity at 70.5 h: -2.88% for the first, -8.36% for the second.

Going from `CC(C)(O)CN1CCN(C(=O)COC2CCCC2)CC1` to `Cc1nc(CN2CCCN(C(=O)C(C)OCC3CC3)CC2)cs1` (centres undefined), the cytotoxicity at 70.5 h falls from -2.37% to -8.36%.

Compared with `CC(C)C(=O)N1CCN(S(C)(=O)=O)CC2(CC(=O)N(C)C2)C1` (centres undefined), `Cn1cc(C(=O)N2CCCC(CN3CCCC3=O)C2)cn1` (centres undefined) is lower in cytotoxicity at 70.5 h: -7.11% for the first, -7.83% for the second.

Going from `COc1ccc(CN2C[C@H]3CN(c4cncnc4)C(=O)[C@H]3C2)cc1` to `COc1cccc(N2CCN(Cc3nccn3C(C)C)CC2=O)c1`, the cytotoxicity at 70.5 h rises from -5.39% to -2.87%.

First: Cn1ccnc1C(=O)N1CCC2(CCN2c2ncccn2)C1 (centres undefined)
Second: CC(C)COC1CC2(CCN(C(=O)Cc3ccccn3)CC2)C1
The cytotoxicity at 70.5 h of the first is higher: 0.472% for the first, -11.8% for the second.

Compared with `CN(C)Cc1ccc(C2CCCCN2C(=O)c2cc(C3CC3)n[nH]2)cc1` (centres undefined), `Cc1ccc(C2COCCN2C(=O)c2ccc(F)c(F)c2)o1` (centres undefined) is higher in cytotoxicity at 70.5 h: -5% for the first, -0.394% for the second.

Going from `Cc1nnc2n1CCN(Cc1csc(CC(=O)N(C)C)n1)C2` to `CC(=O)N1CCN(Cc2csc(-c3cnn(C)c3)n2)CC1`, the cytotoxicity at 70.5 h rises from -13.5% to 2.34%.

Going from `CN(C)C(=O)N1CCn2nc(CNC(=O)CCC(F)(F)F)cc2C1` to `COc1cc(C)nc(N2CCN(C(=O)COCC(F)(F)F)CC2)n1`, the cytotoxicity at 70.5 h falls from -3.05% to -15.4%.

First: CCN1CCN(S(=O)(=O)c2cc(C)c(Cl)cc2C)CC1
Second: Cc1cc(CNC(=O)N2CCN(c3nc(C)c(C)s3)CC2)no1
The cytotoxicity at 70.5 h of the first is lower: 2.46% for the first, 7.38% for the second.

Going from `COCCN(C)C1COC2(CCN(Cc3cccc(F)c3)CC2)C1` (centres undefined) to `N#Cc1cccc(OCCN2CCCC(c3noc(C4CC4)n3)C2)c1` (centres undefined), the cytotoxicity at 70.5 h falls from 10.1% to -5.39%.

First: CCNC(=O)c1ccoc1CN1c2ccccc2CC1C (centres undefined)
Second: Cn1ccnc1SCCNC(=O)CC1CCc2ccccc21 (centres undefined)
The cytotoxicity at 70.5 h of the first is higher: -5.21% for the first, -10.6% for the second.

Going from `CSCCC(=O)N1CCCC(c2ncc[nH]2)C1` (centres undefined) to `O=C(CCC1CCCC1)NCCn1nc(C2CCNC2)c2cccnc21` (centres undefined), the cytotoxicity at 70.5 h rises from -21.7% to -14.1%.

First: Cc1ccc(CNc2ccn(CCc3ccncc3)n2)s1
Second: O=C(CCc1cc2n(n1)CCN(Cc1ccncc1)C2)N1CCCC1
The cytotoxicity at 70.5 h of the first is lower: 2.73% for the first, 18.6% for the second.

Compared with `COCCCN1CCN(CC2CCCO2)CC1` (centres undefined), `COCCN1CCc2ncnc(NC3CC3)c2CC1` is lower in cytotoxicity at 70.5 h: 22.5% for the first, -2.68% for the second.

Going from `N#Cc1ccccc1N1CCN(CCC(=O)N2CCOCC2)CC1` to `O=C(c1ccoc1)N1CCC(NCc2ccccc2Cl)CC1`, the cytotoxicity at 70.5 h falls from -3.68% to -8.33%.

First: CNC(=O)Cn1c(CO)cnc1SCc1ccccc1Cl
Second: COc1ccccc1CNC(=O)CN(C)C(C)c1nccs1 (centres undefined)
The cytotoxicity at 70.5 h of the first is higher: 16.9% for the first, -1.57% for the second.

First: O=C(CNC(=O)c1c[nH]c2ccccc12)NCCCn1ccnc1
Second: CNC(=O)C1(c2cnccn2)CCCN1C(=O)c1ccccc1C (centres undefined)
The cytotoxicity at 70.5 h of the first is lower: -5.85% for the first, 15.3% for the second.

Going from `OCCOc1cc(F)ccc1NCc1cccc(F)c1F` to `O=C(NCCCO)c1nnsc1-c1ccc(Cl)cc1`, the cytotoxicity at 70.5 h falls from 1.35% to -13.1%.

First: O=C(NCCC1=CCCCC1)NC1CCCc2c1cnn2CCO (centres undefined)
Second: CCc1nnc(SC2CCCN(c3cnn(C)c3)C2=O)n1C (centres undefined)
The cytotoxicity at 70.5 h of the first is higher: -10.1% for the first, -12.6% for the second.

Compared with `CN1CCN(Cc2nc3c(s2)CCCC3)[C@H]2CS(=O)(=O)C[C@H]21`, `Cc1ccsc1C(=O)N1CCCN(Cc2cscn2)CC1` is lower in cytotoxicity at 70.5 h: 1.26% for the first, -2.76% for the second.

Compared with `CC1CCC(NC(=O)c2nn(C)cc2Br)CC1` (centres undefined), `CCCn1cc(C(=O)N[C@H]2CC[C@H](n3cnnc3)CC2)c(C)n1` is higher in cytotoxicity at 70.5 h: -7.64% for the first, 0.742% for the second.

Going from `O=C(O)c1cccc2c(Br)cccc12` to `CC(C)N(CC(N)=O)Cc1cccc(Br)c1`, the cytotoxicity at 70.5 h rises from -0.692% to 1.5%.

Compared with `CC(C)c1nnc(NC(=O)CN2C(=O)c3ccccc3NC2C(C)C)s1` (centres undefined), `CC(C)CCC(C)NC(=O)Nc1ccccn1` (centres undefined) is higher in cytotoxicity at 70.5 h: -13% for the first, -2.67% for the second.

First: Cc1nn(C(C)(C)C)c(=O)n1CC(=O)NC(C)(C)C
Second: CN1C(=O)CO[C@H](c2ccc(NC(=O)NC(C)(C)C)cc2)[C@H]1CO
The cytotoxicity at 70.5 h of the first is higher: 10.6% for the first, -0.339% for the second.

Going from `COc1ccc(CNC(=O)Nc2ccc(S(=O)(=O)C(F)F)cc2)cc1` to `CC(C)CCNC(=O)c1sccc1N(C)S(=O)(=O)c1ccccc1`, the cytotoxicity at 70.5 h rises from 8.9% to 33.2%.

Compared with `CCC(CC)N(Cc1ccc2c(c1)OCO2)C(=O)c1ccc(=O)n(C)c1`, `CC(CN1CCCC1=O)NC(=O)c1cc(=O)[nH]c2ccc(Cl)cc12` (centres undefined) is lower in cytotoxicity at 70.5 h: -1.82% for the first, -85.6% for the second.

First: Cc1ccc(C(=O)N2CCSCC2)cc1N1CCNC1=O
Second: O=C(c1ncn2c1CNS(=O)(=O)c1ccccc1-2)N1CC=CC1
The cytotoxicity at 70.5 h of the first is lower: -5.73% for the first, 1.87% for the second.

First: O=C(CN1C=Nc2ccccc2S1(=O)=O)NCC1CC1
Second: CCc1nc(C2CCCN2Cc2nnc(Cc3ccccc3)o2)no1 (centres undefined)
The cytotoxicity at 70.5 h of the first is higher: -7.99% for the first, -10.8% for the second.

Compared with `O=C(Nc1ccccc1-c1ccccc1)NC1CCC2(C1)OCCO2` (centres undefined), `O=C(c1cccc2c1OCCO2)N1CCCC(n2ccnc2)C1` (centres undefined) is lower in cytotoxicity at 70.5 h: 27.5% for the first, -5.73% for the second.

Going from `Cc1sc(-n2cnnn2)c(C(=O)NC(C)C)c1C` to `Cc1cc(C(=O)N(C)CC(F)(F)C(F)(F)F)ccc1-n1cncn1`, the cytotoxicity at 70.5 h rises from -10.9% to 2.03%.

Compared with `CN(C)c1nc(N)nc(CN2CCCC2c2cccs2)n1` (centres undefined), `COCCNC(=O)[C@@H]1CN(c2cc(OC)ncn2)C[C@H]2OCC[C@H]21` is lower in cytotoxicity at 70.5 h: 0.514% for the first, -7.76% for the second.
